Results published in PubChem BioAssay AID2060624 (Molecular Pharmacology Branch, DTP, NCI, 2025).

System: 217524-143-R1-J4-PDC spheroids with HUVEC/MSC, viability
Assay: Anticancer human tumor 217524-143-R1-J4-PDC patient-derived pancreatic carcinoma cell line growth inhibition [CLK]
Details: for IC50: curve of first compound; for viability, T/C: stronger effect = lower value
Procedure, shortened: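 Multi-cell-type spheroids combined patient-derived tumor cells with HUVEC endothelial cells and human mesenchymal stem cells. Paired agents were dosed in half-log steps down from about clinical Cmax, or from 10 microM where Cmax was unknown.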
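Further: spheroids exposed to agents for seven days before reading.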
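Wherever viability, T/C is given: 100% = DMSO vehicle control viability.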

CC(=O)O[C@H]1C(=O)[C@@]2(C)[C@H]([C@H](OC(=O)c3ccccc3)[C@]3(O)C[C@H](OC(=O)[C@H](O)[C@@H](NC(=O)c4ccccc4)c4ccccc4)C(C)=C1C3(C)C)[C@]1(OC(C)=O)CO[C@@H]1C[C@@H]2O + CNC(=O)c1ccc(Nc2nc(OC3CCCC3)c3c(-c4ccc5nc(C)oc5c4)c[nH]c3n2)c(OC)c1
IC50 (second compound 0.0316 µM): < 31.6 nM | IC50 (second compound 0.1 µM): < 31.6 nM | IC50 (second compound 0.316 µM): < 31.6 nM | IC50 (second compound 1 µM): < 31.6 nM | IC50 (second compound 3.16 µM): < 31.6 nM | IC50 (second compound 10 µM): < 31.6 nM | viability, T/C (second compound 0.0316 µM, first compound 0.0316 µM): 19.7% | viability, T/C (second compound 0.0316 µM, first compound 0.1 µM): 14.3% | viability, T/C (second compound 0.0316 µM, first compound 0.316 µM): 16.9% | viability, T/C (second compound 0.0316 µM, first compound 1 µM): 16.6% | viability, T/C (second compound 0.0316 µM, first compound 3.16 µM): 25.4% | viability, T/C (second compound 0.0316 µM, first compound 10 µM): 30.8% | viability, T/C (second compound 0.1 µM, first compound 0.0316 µM): 31.3% | viability, T/C (second compound 0.1 µM, first compound 0.1 µM): 26.3% | viability, T/C (second compound 0.1 µM, first compound 0.316 µM): 31.9% | viability, T/C (second compound 0.1 µM, first compound 1 µM): 28% | viability, T/C (second compound 0.1 µM, first compound 3.16 µM): 33.3% | viability, T/C (second compound 0.1 µM, first compound 10 µM): 43.4% | viability, T/C (second compound 0.316 µM, first compound 0.0316 µM): 34.9% | viability, T/C (second compound 0.316 µM, first compound 0.1 µM): 30.4% | viability, T/C (second compound 0.316 µM, first compound 0.316 µM): 37% | viability, T/C (second compound 0.316 µM, first compound 1 µM): 39.8% | viability, T/C (second compound 0.316 µM, first compound 3.16 µM): 34.5% | viability, T/C (second compound 0.316 µM, first compound 10 µM): 33% | viability, T/C (second compound 1 µM, first compound 0.0316 µM): 20.6% | viability, T/C (second compound 1 µM, first compound 0.1 µM): 27.6% | viability, T/C (second compound 1 µM, first compound 0.316 µM): 33.4% | viability, T/C (second compound 1 µM, first compound 1 µM): 39.4% | viability, T/C (second compound 1 µM, first compound 3.16 µM): 35.9% | viability, T/C (second compound 1 µM, first compound 10 µM): 33% | viability, T/C (second compound 3.16 µM, first compound 0.0316 µM): 20.9% | viability, T/C (second compound 3.16 µM, first compound 0.1 µM): 26.1% | viability, T/C (second compound 3.16 µM, first compound 0.316 µM): 31% | viability, T/C (second compound 3.16 µM, first compound 1 µM): 34.8% | viability, T/C (second compound 3.16 µM, first compound 3.16 µM): 37.6% | viability, T/C (second compound 3.16 µM, first compound 10 µM): 31.2% | viability, T/C (second compound 10 µM, first compound 0.0316 µM): 19.1% | viability, T/C (second compound 10 µM, first compound 0.1 µM): 27.5% | viability, T/C (second compound 10 µM, first compound 0.316 µM): 29% | viability, T/C (second compound 10 µM, first compound 1 µM): 36.2% | viability, T/C (second compound 10 µM, first compound 3.16 µM): 40.2% | viability, T/C (second compound 10 µM, first compound 10 µM): 32.2%
